Measured values reported in the supplement of paper PMC10307832.

Experiments:
Test in all cases: relative viability (nuclei count vs DMSO), 5 days (fraction); higher = more cells survive
[1] = compound: CNC(=O)c1ccccc1Sc1ccc2c(/C=C/c3ccccn3)n[nH]c2c1 [Axitinib] + CS(=O)(=O)N1CCN(Cc2cc3nc(-c4cccc5[nH]ncc45)nc(N4CCOCC4)c3s2)CC1 [Pictilisib] (partner 1 µM)
Summary of the method: (§1)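 Relative viability is defined as nuclei in treated wells over nuclei in vehicle wells. Duplicate plates were run and medians reported. Lung cancer cell lines in 1536-well plates were dosed by pin tool one day after seeding, with one drug or with a fixed anchor-drug dose plus five library-drug doses (not always all listed) in √10 steps, and nuclei were counted after 5 days.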

[2] = compound: CNC(=O)c1ccccc1Sc1ccc2c(/C=C/c3ccccn3)n[nH]c2c1 [Axitinib] + Nc1nc2[nH]cc(CCc3ccc(C(=O)N[C@@H](CCC(=O)O)C(=O)O)cc3)c2c(=O)[nH]1 [Pemetrexed] (partner 0.2 µM)
Summary of the method: as §1

[3] = compound: Nc1nc(Nc2ccc3c(c2)CC[C@@H](N2CCCC2)CC3)nn1-c1cc2c(nn1)-c1ccccc1CCC2 [Bemcentinib] + CC(=O)Nc1cccc(-n2c(=O)n(C3CC3)c(=O)c3c(Nc4ccc(I)cc4F)n(C)c(=O)c(C)c32)c1 [Trametinib] (partner 0.02 µM)
Summary of the method: as §1

[4] = compound: CC1=CC=C(C=C1)C(=O)CN2C3=C(CCCC3)SC2=N [Pifithrin_alpha] + O=C(c1cc(Cc2n[nH]c(=O)c3ccccc23)ccc1F)N1CCN(C(=O)C2CC2)CC1 [Olaparib] (partner 8 µM)
Summary of the method: as §1

Cell Line	relative viability ([1]; first compound 0.005 µM)	relative viability ([1]; first compound 0.01581 µM)	relative viability ([1]; first compound 0.05 µM)	relative viability ([1]; first compound 0.1581 µM)	relative viability ([1]; first compound 0.5 µM)	relative viability ([2]; first compound 0.005 µM)	relative viability ([2]; first compound 0.01581 µM)	relative viability ([2]; first compound 0.05 µM)	relative viability ([2]; first compound 0.1581 µM)	relative viability ([2]; first compound 0.5 µM)	relative viability ([3]; first compound 0.04 µM)	relative viability ([3]; first compound 0.1265 µM)	relative viability ([3]; first compound 0.4 µM)	relative viability ([3]; first compound 1.265 µM)	relative viability ([3]; first compound 4 µM)	relative viability ([4]; first compound 1 µM)	relative viability ([4]; first compound 3.162 µM)	relative viability ([4]; first compound 31.62 µM)	relative viability ([4]; first compound 100 µM)	relative viability ([4]; first compound 10 µM)
NCI-H1563	0.645	0.599	0.647	0.681	0.659	0.844	0.716	0.917	0.729	0.721										
EMC-BAC-2	0.569	0.533	0.534	0.555	0.529	0.476	0.464	0.456	0.461	0.518	0.874	0.896	0.873	0.897	0.967	0.419	0.412	0.252	0.351	
NCI-H596	0.352	0.359	0.417	0.379	0.364	0.517	0.483	0.676	0.533	0.433	0.911	0.965	0.93	0.946	0.923	0.634	0.589	0.492	0.513	0.679
NCI-H2009	0.875	0.877	1	0.868	1.04	0.997	1.06	1	1.1	1.05	0.231	0.321	0.232	0.273	0.268	0.701	0.903	0.286	0.614	0.594
HOP-62	0.679	0.861	0.735	0.792	0.583	0.378	0.328	0.31	0.41	0.482	0.341	0.337	0.402	0.395	0.458	0.524	0.635	0.127	0.65	0.446
NCI-H2126	0.457	0.475	0.504	0.522	0.499	0.679	0.708	0.689	0.75	0.737	0.639	0.583	0.588	0.581	0.585	0.91	1.01	0.691	0.927	0.924
HCC-15	0.696	0.828	0.761	0.736	0.737	0.211	0.228	0.23	0.22	0.211	0.389	0.365	0.44	0.368	0.42	0.733	0.867	0.368	0.581	0.697
NCI-H23	0.535	0.574	0.505	0.477	0.508	0.678	0.751	0.583	0.665	0.713	0.363	0.432	0.353	0.429	0.466	0.248	0.249	0.191	0.177	0.223
LCLC-97TM1	0.145	0.229	0.206	0.247	0.172	0.203	0.188	0.176	0.186	0.181	0.206	0.195	0.2	0.232	0.2		0.39		0.289	0.33
SW 1573	0.507	0.462	0.576	0.444	0.463	0.841	0.777	0.928	0.77	0.816	0.521	0.488	0.658	0.572	0.654	0.493	0.466		0.342	0.413
EKVX	0.441	0.429	0.481	0.48	0.399	0.428	0.376	0.457	0.417	0.398	0.32	0.372	0.351	0.491	0.34	0.825	0.685	0.266	0.336	0.531
HCC-44	0.56	0.734	0.682	0.695	0.546	0.625	0.631	0.626	0.624	0.676	1.11	1.13	1.06	1.18	1.18	0.918	0.877	0.553	0.627	0.818
NCI-H1651	0.631	0.503	0.665	0.576	0.567	0.567	0.586	0.587	0.618	0.657	0.85	0.831	0.788	0.951	0.852	0.184	0.191	0.143	0.194	0.173
COR-L23	0.838	0.779	0.832	0.731	0.944	0.197	0.201	0.194	0.192	0.21	0.569	0.696	0.66	0.641	0.658	0.262	0.306		0.269	0.267
